# Experimental data: patent publication US4922021A, “New alkylene diamine derivatives” (BASF Aktiensellschaft, priority 1981, dated 1990)
# What was measured:
# [1] = test system: ouabain-induced arrhythmia; assay: Ouabain-induced arrhythmia in anaesthetized dogs; format: in vivo
# Method: Anaesthetized dogs of both sexes were treated intravenously with an infusion of 60 /ug/kg of ouabain to provoke arrhythmia, and the arrhythmic state was maintained with an ouabain dose 60 times less than the initial. In this way a ventricular tachycardia or tachyarrhythmia lasting for more than 180 minutes was provoked. The compounds were tested during this period. The period of recovered normal sinus rhythm was recorded, and when a compound exerted protective effect for more than 30 minutes, this fact was regarded as complete protection. The tests were performed essentially according to the method of Piascik et al. [Can.
# Examination of the anti-arrhythmic effect in dogs anaesthetized with a 30
# of pentobarbital sodium and treated with ouabain
# [2] = test system: barium chloride-induced arrhythmia; assay: Barium chloride-induced arrhythmia in awake rabbits; format: in vivo; settings: 2 mg/kg
# Method: The compounds to be tested were administered intravenously to the animals 3 minutes after treating them with barium chloride, and the effect was recorded. It was regarded as a positive protecting effect when the compound suspended the arrhythmic condition for at least 3 minutes.
# [3] = test system: fibrillation threshold of the heart; assay: Determination of the fibrillation threshold in anaesthetized cats; format: in vivo
# Text: The chests of the cats were opened under chloralose-urethane anaesthesia a bipolar stimulating electrode was fixed onto the heart, and the heart was stimulated electrically with a frequency of 20 Hz, under continuously increasing current strength, until a fibrillo-flattern could be observed. This current strength was regarded as the fibrillation threshold of the animal.
# left auricle = assay: Electrophysiological tests on isolated rabbit heart, left auricle; set-up: species or system rabbits; settings: 2 mg/l, average
# Method: (§1) Heart of rabbits of both sexes, weighing 1-2 kg, were removed, the right and left auricles and a segment of the right ventricle were prepared and placed into a vessel filled with nutrient solution. Bipolar platinum electrodes (a stimulating electrode and a lead electrode) were placed onto the organ strips, and the electric stimulus threshold and the speed of impulse condution were measured. The effective refractory period determined on the basis of the maximum driving frequency.
# right ventricle = assay: Electrophysiological tests on isolated rabbit heart, right ventricle; set-up: species or system rabbits; settings: 2 mg/l, average
# Method: as §1
# [4] = test system: myocardial contractile force, arterial blood pressure and pulse rate; assay: Inotropic effects (myocardial contractile force) in anaesthetized cats; format: in vivo; settings: i.v.; for Contractility, change: basal 100
# Method: Cats were anaesthetized with chloralose-urethane, a cannula was lead into the femoral artery, and the cannula was connected, through a Statham P 23 Db pressure sensor, to a Hellige recorder, where the arterial blood pressure and the pulse rate were recorded. The animals were respirated artifically, their chests were opened, and a strain gage was sutured on the left heart. The strain gage was connected to the Hellige recorder, and the variations in cardiac contractile force were recorded. The test compounds were administered to the animals intravenously through a cannula.
# [5] = test system: systemic and pulmonary circulation; assay: Effects on the systemic and pulmonary circulation of awake cats; format: in vivo; settings: i.v., 1.0 mg/kg; for Pulmonary arterial mean pressure, change: basal 13; for Arterial blood pressure, change: basal 102; for Pulse/minute, change: basal 190-200
# Text: Cats were anaesthetized with pentobarbital, and cannulas were placed into the carotis artery and, through the jugular vein, into the pulmonary artery. An additional cannula was placed into the jugular vein for the administration of the test compound. The cannulas were filled up with heparin in order to avoid blood clotting. Thereafter the wounds were sutured, and the cannulas were led below a bandage placed around the neck of the animal. 3 days after this operation the systemic arterial blood pressure, the pulmonary arterial pressure and the pulse rate of the awake animals were measured with a Hellige recorder, connected to the cannulas through a Statham P 23 Db type pressure transducer.
# [6] = test system: aconitin-induced arrhythmia; settings: mouse, in vivo; for Delay in the appearance time of arrhythmia: po, 100 mg/kg
# [7] = test system: aconitin-induced arrhythmia; assay: animal or person; settings: Mus musculus, ip, read-out: Delay in time of appearance of arrhythmia
# in vivo = settings: mouse, ip
# [8] = literature; cited from earlier work
# respiratory centre = settings: Bull. Soc. Chim. France 1947, 827; cited from earlier work
# [9] = test system: sympathic nervious system; settings: Bull. Soc. Chim. France 1940, 603; cited from earlier work
# [10] = J. Med. Chem. 6, 705 (1963); cited from earlier work
smiles,measurement,setting,value
"Cc1cccc(C)c1OCC(C)N.Cl (stereo not drawn) [1-(2,6-Dimethylphenoxy)-2-aminopropane hydrochloride, reference compound]",Average time of partial suspension,"[1]; dog, in vivo, iv, 0.5 mg/kg",0.5 min
same,"Complete suspension, number of cases","[1]; dog, in vivo, iv, 0.5 mg/kg",1/15
same,Average time of partial suspension,"[1]; dog, in vivo, iv, 1 mg/kg",2.6 min
same,"Complete suspension, number of cases","[1]; dog, in vivo, iv, 1 mg/kg",1/15
same,Average time of partial suspension,"[1]; dog, in vivo, iv, 2 mg/kg",2.9 min
same,"Complete suspension, number of cases","[1]; dog, in vivo, iv, 2 mg/kg",3/14
same,Average time of partial suspension,"[1]; dog, in vivo, iv, 4 mg/kg",1.4 min
same,"Complete suspension, number of cases","[1]; dog, in vivo, iv, 4 mg/kg",4/9
same,Average time of partial suspension,"[1]; dog, in vivo, iv, 8 mg/kg",10.3 min
same,"Complete suspension, number of cases","[1]; dog, in vivo, iv, 8 mg/kg",2/5
same,"Protecting effect, number of animals","[2]; rabbit, in vivo, iv",4/10
same,Effect on the fibrillation threshold,"[3]; in vivo, iv, 0.5 mg/kg",+9.4%
same,Effect on the fibrillation threshold,"[3]; in vivo, iv, 1 mg/kg",+12.9%
same,Effect on the fibrillation threshold,"[3]; in vivo, iv, 2 mg/kg",+24.8%
same,Effect on the fibrillation threshold,"[3]; in vivo, iv, 4 mg/kg",+34.0%
same,Change of the conduction time,left auricle,+24%
same,Change of the effective refractory period,left auricle,+32%
same,Change of the electric stimulus threshold,left auricle,+36%
same,Change of the conduction time,right ventricle,+11%
same,Change of the effective refractory period,right ventricle,+28%
same,Change of the electric stimulus threshold,right ventricle,+14%
same,"Arterial blood pressure, change",[4]; 0.5 mg/kg,-45 mmHg
same,"Pulse/minute, change",[4]; 0.5 mg/kg,-40 min⁻¹
same,"Contractility, change",[4]; 0.5 mg/kg,-29%
same,"Arterial blood pressure, change",[4]; 1.0 mg/kg,-40 mmHg
same,"Pulse/minute, change",[4]; 1.0 mg/kg,-50 min⁻¹
same,"Contractility, change",[4]; 1.0 mg/kg,-32%
same,"Arterial blood pressure, change",[4]; 2.0 mg/kg,-60 mmHg
same,"Pulse/minute, change",[4]; 2.0 mg/kg,-50 min⁻¹
same,"Contractility, change",[4]; 2.0 mg/kg,-38%
same,"Arterial blood pressure, change",[4]; 5.0 mg/kg,-65 mmHg
same,"Pulse/minute, change",[4]; 5.0 mg/kg,-50 min⁻¹
same,"Contractility, change",[4]; 5.0 mg/kg,-57%
same,"Pulmonary arterial mean pressure, change",[5],+6 mmHg
same,"Arterial blood pressure, change",[5],-39 mmHg
same,"Pulse/minute, change",[5],-66 min⁻¹
same,Delay in the appearance time of arrhythmia,[6],+82.0%
same,change in vivo at 5 mg/kg,[7],3.5%
same,change in vivo at 10 mg/kg,[7],7.7%
same,change in vivo at 25 mg/kg,[7],33.3%
same,change in vivo at 50 mg/kg,[7],83.1%
same,change in vivo at 75 mg/kg,[7],162%
"Cc1cccc(C)c1NCC(C)N (stereo not drawn) [1-(2,6-dimethylphenyl-amino)-2-amino-propane]",Delay in the appearance time of arrhythmia,[6],+27.0%
same,LD50,in vivo,135 mg/kg
same,change in vivo at 25 mg/kg,[7],17%
same,change in vivo at 50 mg/kg,[7],87.3%
same,change in vivo at 100 mg/kg,[7],124%
"CCN(CC)CCNc1c(C)cccc1C [1-(2,6-dimethylphenyl-amino)-2-diethylamino-ethane]",local anaesthetic effects,[8],local anaesthetic effects
"Cc1cccc(C)c1NCC(C)N(C)C (stereo not drawn) [1-(2,6-dimethylphenyl-amino)-2-dimethylamino-propane]",Average time of partial suspension,"[1]; i.v., 0.5 mg/kg",0.4 min
same,"Complete suspension, number of cases","[1]; i.v., 0.5 mg/kg, protection > 30 min = complete",0/15
same,Average time of partial suspension,"[1]; i.v., 1.0 mg/kg",1.5 min
same,"Complete suspension, number of cases","[1]; i.v., 1.0 mg/kg, protection > 30 min = complete",0/15
same,Average time of partial suspension,"[1]; i.v., 2.0 mg/kg",5.7 min
same,"Complete suspension, number of cases","[1]; i.v., 2.0 mg/kg, protection > 30 min = complete",4/15
same,Average time of partial suspension,"[1]; i.v., 4.0 mg/kg",6.4 min
same,"Complete suspension, number of cases","[1]; i.v., 4.0 mg/kg, protection > 30 min = complete",3/12
same,Average time of partial suspension,"[1]; i.v., 8.0 mg/kg",10.0 min
same,"Complete suspension, number of cases","[1]; i.v., 8.0 mg/kg, protection > 30 min = complete",5/9
same,"Protecting effect, number of animals","[2]; i.v., arrhythmia suspended for at least 3 minutes",5/10
same,Effect on the fibrillation threshold,"[3]; i.v., 0.5 mg/kg",+8.6%
same,Effect on the fibrillation threshold,"[3]; i.v., 1.0 mg/kg",+12.2%
same,Effect on the fibrillation threshold,"[3]; i.v., 2.0 mg/kg",+27.0%
same,Effect on the fibrillation threshold,"[3]; i.v., 4.0 mg/kg",+53.9%
same,Change of the conduction time,left auricle,+12%
same,Change of the effective refractory period,left auricle,+20%
same,Change of the electric stimulus threshold,left auricle,+32%
same,Change of the conduction time,right ventricle,+12%
same,Change of the effective refractory period,right ventricle,+18%
same,Change of the electric stimulus threshold,right ventricle,+6%
same,"Arterial blood pressure, change",[4]; 0.5 mg/kg,-7 mmHg
same,"Pulse/minute, change",[4]; 0.5 mg/kg,+10 /minute
same,"Contractility, change",[4]; 0.5 mg/kg,-5%
same,"Arterial blood pressure, change",[4]; 1.0 mg/kg,-10 mmHg
same,"Pulse/minute, change",[4]; 1.0 mg/kg,+15 /minute
same,"Arterial blood pressure, change",[4]; 2.0 mg/kg,-30 mmHg
same,"Pulse/minute, change",[4]; 2.0 mg/kg,-10 min⁻¹
same,"Arterial blood pressure, change",[4]; 5.0 mg/kg,-40 mmHg
same,"Pulse/minute, change",[4]; 5.0 mg/kg,-25 min⁻¹
same,"Contractility, change",[4]; 5.0 mg/kg,-33%
same,"Pulmonary arterial mean pressure, change",[5],+2.8 mmHg
same,"Arterial blood pressure, change",[5],+2 mmHg
same,"Pulse/minute, change",[5],-9 min⁻¹
same,column headed by drawing 10 (apparently LD50/ED50),[6]; ip,5.7
same,Delay in the appearance time of arrhythmia,[6],+74.0%
same,LD50,in vivo,114 mg/kg
same,change in vivo at 10 mg/kg,[7],17.2%
same,change in vivo at 25 mg/kg,[7],72.7%
same,change in vivo at 50 mg/kg,[7],138%
same,change in vivo at 75 mg/kg,[7],212%
CCN(CC)CCNc1cccc(Cl)c1 [1-(3-chlorophenyl-amino)-2-diethylamino-ethane],stimulates the respiratory centre,respiratory centre,stimulates the respiratory centre
"Cc1cccc(C)c1NC(C)CN.Cl.Cl (stereo not drawn) [1-Amino-2-(2,6-dimethylphenyl-amino)-propane dihydrochloride]",Delay in the appearance time of arrhythmia,[6],+41.0%
same,LD50,in vivo,155 mg/kg
same,change in vivo at 25 mg/kg,[7],16.6%
same,change in vivo at 50 mg/kg,[7],60%
same,change in vivo at 100 mg/kg,[7],127%
CC(CN)Nc1ccccc1 (stereo not drawn) [1-amino-2-phenylamino-propane],acting on the sympathetic nervous system,[9],acting on the sympathic nervious system
"Cc1cccc(C)c1NCCN [N-(2,6-dimethylphenyl)-ethylenediamine]",hypotensive effects,[10],hypotensive effects
"CCN(CCN)c1c(C)cccc1C [N-ethyl-N-(2,6-dimethylphenyl)-ethylenediamine]",hypotensive effects,[10],hypotensive effects
"Cc1cccc(C)c1N(C)CCN [N-methyl-N-(2,6-dimethylphenyl)-ethylenediamine]",hypotensive effects,[10],hypotensive effects
